From patent publication US8247170B2, “Detection of penicillin tolerance in Group B Streptococcus: single nucleotide polymorphisms in penicillin binding protein 4” (priority 2008, dated 2012)

System: GBS strains
Experiment: Cell viability by intracellular ATP concentration after penicillin
Type: cell-based, Group B Streptococcus
Settings: GBS strain A909 compared to NEM316 and O90R; 100×MIC90 Penicillin G 22 hours
Protocol: GBS strains were cultured for 18 hours at 37° C. in THB. These cultures were used to inoculate fresh THB and subsequently allowed to grow to exponential phase (OD600 0.25-0.3) at 37° C. One (1) ml of culture was centrifuged at 5,000 g for 4 min. The cell pellet was re-suspended in ATP free water. Cellular ATP was extracted by using trichloroacetic acid (TCA) (5%) for 2 min. and subsequently neutralized with Tris-EDTA-0.1M NaOAc, pH 7.75 to 10×TCA volume. The initial (in.) cellular ATP concentration ([ATP]) was measured using the ENLITEN (Promega) luciferase based reaction kit. THB cultures then treated 100×MIC90 Penicillin G for 22 hours. The experimental (exp.) cellular ATP was extracted and the concentration was measured as stated above. Based on the calculations ([ATP] exp.)/([ATP] in./O.D. in.), differences in viability were equated with the change in [ATP].
(I) Bacterial Strains and Culture Conditions. […] Cell cultures were allowed to re-grow for an additional 24 h at 37° C. before the OD600 was measured. […] The initial (in.) cellular ATP concentration ([ATP]) was measured using the ENLITEN (Promega) luciferase based reaction kit. […] The experimental (exp.) cellular ATP was extracted and the concentration was measured as stated above. […]

`CC1(C)S[C@@H]2[C@H](NC(=O)Cc3ccccc3)C(=O)N2[C@H]1C(=O)O` [Penicillin G] was tested, and the “cellular [ATP] content (FIG. 3)” value was “significant lesser [ATP] content”.
